This assay addresses T1, sodium-proton exchanger of subtype 3 (NHE3) (Homo sapiens, UniProt P48764).
T1 construct: expressed in transfected cells
T1 sequence (P48764 26-834): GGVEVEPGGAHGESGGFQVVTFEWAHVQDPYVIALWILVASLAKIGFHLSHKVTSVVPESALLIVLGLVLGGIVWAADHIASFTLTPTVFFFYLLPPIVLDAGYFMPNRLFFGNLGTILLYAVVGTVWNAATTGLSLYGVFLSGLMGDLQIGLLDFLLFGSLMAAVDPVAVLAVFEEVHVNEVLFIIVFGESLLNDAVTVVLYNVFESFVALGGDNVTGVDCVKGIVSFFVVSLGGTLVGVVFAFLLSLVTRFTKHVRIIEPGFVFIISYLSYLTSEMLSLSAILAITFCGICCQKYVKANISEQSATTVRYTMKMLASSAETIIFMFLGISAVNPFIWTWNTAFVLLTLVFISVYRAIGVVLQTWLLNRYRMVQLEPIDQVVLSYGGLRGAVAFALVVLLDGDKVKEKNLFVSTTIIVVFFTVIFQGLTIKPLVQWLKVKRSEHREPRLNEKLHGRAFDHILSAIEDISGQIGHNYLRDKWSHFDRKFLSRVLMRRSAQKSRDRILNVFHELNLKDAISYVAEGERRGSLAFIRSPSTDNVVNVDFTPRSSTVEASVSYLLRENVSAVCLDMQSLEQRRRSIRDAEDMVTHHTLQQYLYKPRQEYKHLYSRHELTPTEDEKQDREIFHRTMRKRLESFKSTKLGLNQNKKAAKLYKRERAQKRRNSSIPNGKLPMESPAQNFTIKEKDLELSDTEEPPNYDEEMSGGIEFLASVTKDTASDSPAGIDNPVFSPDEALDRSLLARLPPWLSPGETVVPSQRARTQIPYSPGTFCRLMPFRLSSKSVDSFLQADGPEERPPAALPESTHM
As to the kind of experiment: Recovery of intracellular pH (pHi) after acidification in LAP1 cells stably expressing NHE3 (BCECF fluorescence, FLIPR). Type of assay: cell-based. The following applies: LAP1 cells stably expressing NHE3; pH recovery after acidification; range 1 is % inhibition at 10 μM; read-out: Activity range (inhibitory effect on NHE3).

Molecules are shown by their SMILES.

With `CS(=O)(=O)c1ccc(O[C@H]2c3cc(Cl)cc(Cl)c3C[C@@H]2N2CC[C@@H](C#N)C2)cc1` [Example 105, (R)-1-[trans-(1S,2S)-4,6-dichloro-1-(4-methanesulfonylphenoxy)indan-2-yl]pyrrolidine-3-carbonitrile], the IC50 was 1000 to 10000 nM.

On to `Cn1ccn(-c2cccc(O[C@H]3c4cc(Cl)cc(Cl)c4C[C@@H]3N3CCNCC3)c2)c1=O` (racemic) [Example 257, 1-[3-(rac-trans-(1,2)-4,6-dichloro-2-piperazin-1-ylindan-1-yloxy)phenyl]-3-methyl-1,3-dihydroimidazol-2-one], for which the IC50 was less than 1000 nM.

Take `CC(=O)Nc1cccc(O[C@H]2c3cc(Cl)cc(Cl)c3C[C@@H]2N2CCCC2)c1` (racemic) [Example 648, N-[3-(rac-trans-(1,2)-4,6-dichloro-2-pyrrolidin-1-ylindan-1-yloxy)phenyl]acetamide]: the IC50 is 1000 to 10000 nM.

For `O=C1CCCN1c1ccc(O[C@H]2c3cc(Cl)cc(Cl)c3C[C@@H]2N2CC[C@@H](O)C2)cc1` [Example 333, 1-{4-[trans-(1S,2S)-4,6-dichloro-2-((R)-3-hydroxypyrrolidin-1-yl)indan-1-yloxy]phenyl}pyrrolidin-2-one], the IC50 was less than 1000 nM.

For `NCC1CCN([C@@H]2Cc3ccccc3[C@H]2Oc2ccc(S(N)(=O)=O)c(Cl)c2Cl)C1` (mixture of isomers) [Example 538, 4-[rac-trans-(1,2)-2-(3-aminomethylpyrrolidin-1-yl)indan-1-yloxy]-2,3-dichlorobenzenesulfonamide], the IC50 lay within 1000 to 10000 nM.

As to `N#Cc1ccc(O[C@H]2c3cc(Cl)cc(Cl)c3C[C@@H]2N2CCC[C@@H](N)C2)c(F)c1` [Example 479, 4-[(1S,2S)-2-((R)-3-aminopiperidin-1-yl)-4,6-dichloroindan-1-yloxy]-3-fluorobenzonitrile], the IC50 was less than 1000 nM.

On to `NC(=O)c1ccc(O[C@@H]2c3ccccc3C[C@H]2N2CCC(N)C2)cc1` (mixture of isomers) [Example 544, 4-[rac-trans-(1,2)-2-(3-aminopyrrolidin-1-yl)indan-1-yloxy]benzamide], for which the IC50 lay in the range of 1000 to 10000 nM.

Regarding `Cc1nnc(C)n1-c1ccc(O[C@H]2c3cc(Cl)cc(Cl)c3C[C@@H]2N2CC[C@H](O)C2)c(F)c1` [Example 200, (S)-1-{(1S,2S)-4,6-dichloro-1-[4-(3,5-dimethyl-[1,2,4]triazol-4-yl)-2-fluorophenoxy]indan-2-yl}pyrrolidin-3-ol], the IC50 is less than 1000 nM.

For the compound `COCCc1ccc(O[C@@H]2c3ccccc3C[C@H]2N2CCC(CN)C2)cc1` (mixture of isomers) [Example 598, C-(1-{rac-trans-(1,2)-1-[4-(2-methoxyethyl)phenoxy]indan-2-yl}pyrrolidin-3-yl)methylamine], the IC50 was in the range of 1000 to 10000 nM.

As for `O=C(O[C@H]1c2ccccc2C[C@@H]1N1CCCC1)c1ccc(N2C(=O)CCC2=O)cc1` [Example 458, 4-(2,5-dioxopyrrolidin-1-yl)benzoic acid (1S,2S)-2-pyrrolidin-1-ylindan-1-yl ester], the inhibition at 10 µM is 20 to 50%.

As to `NS(=O)(=O)c1ccc(O[C@H]2c3cc(Cl)ccc3C[C@@H]2N2CCCC2)cc1` (racemic) [Example 473, 4-(rac-trans-(1,2)-6-chloro-2-pyrrolidin-1-ylindan-1-yloxy)benzenesulfonamide], the IC50 is less than 1000 nM.

As to `CS(=O)(=O)c1ccc(O[C@H]2c3ccccc3CC[C@@H]2N2CCOCC2)cc1` (racemic) [Example 508, 4-[rac-trans-(1,2)-1-(4-methanesulfonylphenoxy)-1,2,3,4-tetrahydronaphthalen-2-yl]morpholine], the inhibition at 10 µM fell in the range of 20 to 50%.

Regarding `N#Cc1ccc(O[C@H]2c3ccccc3C[C@@H]2CN2CCCC2)cc1Cl` (racemic) [Example 391, 2-chloro-4-(2-pyrrolidin-1-ylmethylindan-1-yloxy)benzonitrile], the inhibition at 10 µM was 20 to 50%.

Take `CS(=O)(=O)c1ccc(O[C@@H]2c3ccccc3C[C@H]2NC2CCC2)cc1` (racemic) [Example 708, Cyclobutyl-[rac-trans-(1,2)-1-(4-methanesulfonyl-phenoxy)-indan-2-yl]-amine]: the IC50 is 1000 to 10000 nM.

Regarding `COc1cc(Cl)cc(O[C@@H]2c3ccccc3C[C@H]2N2CCC[C@H](N)C2)c1` (racemic) [Example 164, (S)-1-[rac-trans-(1,2)-1-(3-chloro-5-methoxyphenoxy)indan-2-yl]piperidin-3-ylamine], the IC50 was 1000 to 10000 nM.

For the compound `CC(=O)Nc1cccc(O[C@H]2c3c(Cl)cccc3C[C@@H]2N2CCCC2)c1` (racemic) [Example 662, N-[3-(rac-trans-(1,2)-7-chloro-2-pyrrolidin-1-ylindan-1-yloxy)phenyl]acetamide], the IC50 was 1000 to 10000 nM.

Take `Cc1noc(C)c1-c1ccc(O[C@H]2c3ccccc3C[C@@H]2N2CCCC2)cc1` [Example 407, 3,5-dimethyl-4-[4-(trans-(1S,2S)-2-pyrrolidin-1-ylindan-1-yloxy)phenyl]-isoxazole]: the IC50 is less than 1000 nM.

Consider `c1ccc2c(c1)C[C@@H](N1C[C@H]3CNC[C@H]3C1)[C@@H]2Oc1ccc(N2CCNCC2)cc1` (racemic) [Example 17, 2-[rac-trans-(1,2)-1-(4-piperazin-1-ylphenoxy)indan-2-yl]octahydropyrrolo[3,4-c]pyrrole], for which the IC50 fell in the range of 1000 to 10000 nM.

Take `O=S(=O)(NCCC(F)(F)F)c1ccc(O[C@H]2c3ccccc3C[C@@H]2N2CCCC2)cc1` (racemic) [Example 470, 4-(rac-trans-(1,2)-2-pyrrolidin-1-ylindan-1-yloxy)-N-(3,3,3-trifluoropropyl)benzenesulfonamide]: the IC50 lay within 1000 to 10000 nM.

As to `O=C1CCCN1c1ccc(O[C@H]2c3cc(Cl)cc(Cl)c3C[C@@H]2N2CCCC2)cc1` [Example 260, 1-[4-((1S,2S)-4,6-dichloro-2-pyrrolidin-1-ylindan-1-yloxy)phenyl]pyrrolidin-2-one], the IC50 fell in the range of 1000 to 10000 nM.

For the compound `O=C1CCc2c(cccc2O[C@H]2c3cc(Cl)cc(Cl)c3C[C@@H]2N2CC[C@@H](O)C2)N1` [Example 574, 5-[(1S,2S)-4,6-dichloro-2-((R)-3-hydroxypyrrolidin-1-yl)indan-1-yloxy]-3,4-dihydro-1H-quinolin-2-one], the IC50 lay within 1000 to 10000 nM.

`Cc1nnc(C)n1-c1ccc(F)c(O[C@H]2c3cc(Cl)cc(Cl)c3C[C@@H]2N2CC[C@@H](O)C2)c1` [Example 114, (R)-1-{(1S,2S)-4,6-dichloro-1-[5-(3,5-dimethyl-[1,2,4]triazol-4-yl)-2-fluorophenoxy]indan-2-yl}pyrrolidin-3-ol]: the IC50 was in the range of 1000 to 10000 nM.

On to `Fc1ccc(O[C@H]2c3cc(Cl)cc(Cl)c3C[C@@H]2N2CCCC2)c2ncccc12` [Example 593, 8-((1S,2S)-4,6-dichloro-2-pyrrolidin-1-ylindan-1-yloxy)-5-fluoroquinoline], for which the inhibition at 10 µM is 20 to 50%.

Regarding `CS(=O)(=O)c1ccc(O[C@H]2c3cc(Cl)cc(Cl)c3C[C@@H]2N2CCN(C3CC3)CC2)cc1` [Example 351, 1-Cyclopropyl-4-[trans-(1S,2S)-4,6-dichloro-1-(4-methanesulfonylphenoxy)indan-2-yl]piperazine], the inhibition at 10 µM lay within 20 to 50%.

`CC(=O)Nc1cccc(O[C@H]2c3cc(Cl)cc(Cl)c3C[C@@H]2N2CCN(C)CC2)c1` [Example 697, N-{3-[trans-(1S,2S)-4,6-dichloro-2-(4-methylpiperazin-1-yl)indan-1-yloxy]phenyl}acetamide]: the IC50 was 1000 to 10000 nM.

For `CS(=O)(=O)c1ccc(O[C@H]2c3cc(Cl)cc(Cl)c3C[C@@H]2N2CCCC(NCCO)C2)cc1` (stereo partly drawn) [Example 379, 2-{(R)-1-[trans-(1S,2S)-4,6-dichloro-1-(4-methanesulfonylphenoxy)indan-2-yl]piperidin-3-ylamino}-ethanol], the IC50 was less than 1000 nM.

In the case of `CS(=O)(=O)c1ccc(O[C@H]2c3ccccc3C[C@@H]2CN2CCOCC2)cc1` (racemic) [Example 487, 4-[1-(4-methanesulfonylphenoxy)indan-2-ylmethyl]morpholine], the inhibition at 10 µM fell in the range of 20 to 50%.

For `COCCN(C)[C@H]1Cc2c(Cl)cc(Cl)cc2[C@@H]1Oc1ccc(S(C)(=O)=O)cc1` [Example 218, [trans-(1S,2S)-4,6-dichloro-1-(4-methanesulfonylphenoxy)indan-2-yl]-(2-methoxyethyl)-methylamine], the inhibition at 10 µM fell in the range of 20 to 50%.

Take `CN(C)CCN(C)[C@H]1Cc2c(Cl)cc(Cl)cc2[C@@H]1Oc1ccc(S(C)(=O)=O)cc1` [Example 671, N-[trans-(1S,2S)-4,6-dichloro-1-(4-methanesulfonylphenoxy)indan-2-yl]-N,N′,N′-trimethyl-ethane-1,2-diamine]: the IC50 was less than 1000 nM.

For `CC1(C)NC(=O)N(c2ccc(F)c(O[C@H]3c4cc(Cl)cc(F)c4C[C@@H]3N3CC[C@@H](O)C3)c2)C1=O` [Example 420, 3-{3-[(1S,2S)-6-chloro-4-fluoro-2-((R)-3-hydroxypyrrolidin-1-yl)indan-1-yloxy]-4-fluorophenyl}-5,5-dimethylimidazolidine-2,4-dione], the IC50 is 1000 to 10000 nM.

The record behind these values is patent US8822449B2, “Substituted aminoindanes and analogs thereof, and the pharmaceutical use thereof” (Sanofi, priority 2008, dated 2014).
